Columns and labels:
[1] = biological target: T1, human serotonin 5-HT2A receptor (Homo sapiens, UniProt P28223); test: Radioligand binding ([3H]-ketanserin) to membranes of HEK-293 EBNA cells expressing human 5-HT2A receptor; details: 1.1 nM [3H]-ketanserin, HEK-293 EBNA membranes, 1 h at RT
T1 construct: expressed in transfected cells; host or cells: HEK-293 EBNA cells, transient transfection; membrane preparation
Summary of the method: (§1)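 Membranes from HEK-293 EBNA cells transiently transfected with the receptor were incubated 1 h at RT with ten test concentrations (10 μM–0.1 nM) and ~0.7 nM [3H]-spiperone (D2), 0.5 nM [3H]-spiperone (D3) or 1.1 nM [3H]-ketanserin (5-HT2A). Nonspecific binding was set with 10 μM spiperone, bound radioactivity was read by filtration and scintillation, and Ki was taken from IC50 via Cheng-Prusoff.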

[2] = biological target: T2, human dopamine D3 receptor (Homo sapiens, UniProt P35462); test: Radioligand binding ([3H]-spiperone) to membranes of HEK-293 EBNA cells expressing human D3 receptor; details: human D3, 0.5 nM [3H]-spiperone, HEK-293 EBNA membranes, 1 h at RT
T2 construct: expressed in transfected cells; host or cells: HEK-293 EBNA cells, transient transfection; membrane preparation
Summary of the method: as §1

[3] = biological target: T3, human dopamine D2 receptor (Homo sapiens, UniProt P14416); test: Radioligand binding ([3H]-spiperone) to membranes of HEK-293 EBNA cells expressing human D2 receptor; details: human D2, 0.7 nM [3H]-spiperone, HEK-293 EBNA membranes, 1 h at RT
T3 construct: expressed in transfected cells; host or cells: HEK-293 EBNA cells, transient transfection; membrane preparation
Summary of the method: as §1

T1 sequence (P28223 whole entry): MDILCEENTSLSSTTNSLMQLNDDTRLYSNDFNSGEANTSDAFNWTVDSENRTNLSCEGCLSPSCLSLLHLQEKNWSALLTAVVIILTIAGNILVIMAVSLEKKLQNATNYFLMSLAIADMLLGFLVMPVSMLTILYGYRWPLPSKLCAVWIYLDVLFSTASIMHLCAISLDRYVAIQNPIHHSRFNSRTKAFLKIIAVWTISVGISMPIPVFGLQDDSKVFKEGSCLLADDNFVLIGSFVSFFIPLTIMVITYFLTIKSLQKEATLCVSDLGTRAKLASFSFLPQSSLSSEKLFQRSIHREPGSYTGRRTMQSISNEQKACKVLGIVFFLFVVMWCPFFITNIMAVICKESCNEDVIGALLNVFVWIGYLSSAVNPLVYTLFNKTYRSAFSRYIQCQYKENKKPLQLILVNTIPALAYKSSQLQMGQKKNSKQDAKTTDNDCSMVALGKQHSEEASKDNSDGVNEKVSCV
T3 sequence (P14416 whole entry): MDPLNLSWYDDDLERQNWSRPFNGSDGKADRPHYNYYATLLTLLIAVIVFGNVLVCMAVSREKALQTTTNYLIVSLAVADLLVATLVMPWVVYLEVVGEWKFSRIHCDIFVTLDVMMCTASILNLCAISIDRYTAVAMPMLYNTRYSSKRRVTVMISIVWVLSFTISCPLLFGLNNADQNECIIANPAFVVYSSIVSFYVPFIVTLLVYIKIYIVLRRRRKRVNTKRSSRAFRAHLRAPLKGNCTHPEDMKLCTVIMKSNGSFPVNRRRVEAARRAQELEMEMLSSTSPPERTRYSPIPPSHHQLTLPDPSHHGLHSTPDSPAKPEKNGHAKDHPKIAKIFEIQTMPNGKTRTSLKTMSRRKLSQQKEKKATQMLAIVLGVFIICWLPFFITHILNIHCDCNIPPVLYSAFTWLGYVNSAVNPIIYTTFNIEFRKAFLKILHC
T2 sequence (P35462 whole entry): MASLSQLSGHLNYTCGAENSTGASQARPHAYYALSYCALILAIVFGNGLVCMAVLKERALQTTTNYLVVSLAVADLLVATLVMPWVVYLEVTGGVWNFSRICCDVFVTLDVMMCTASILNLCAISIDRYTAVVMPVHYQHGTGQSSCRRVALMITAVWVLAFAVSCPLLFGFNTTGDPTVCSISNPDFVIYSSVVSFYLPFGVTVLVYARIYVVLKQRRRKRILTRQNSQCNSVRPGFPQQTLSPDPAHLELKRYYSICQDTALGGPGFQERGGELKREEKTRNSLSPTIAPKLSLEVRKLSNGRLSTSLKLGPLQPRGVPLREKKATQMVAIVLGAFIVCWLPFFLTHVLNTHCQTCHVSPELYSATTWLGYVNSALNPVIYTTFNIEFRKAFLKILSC

Row | Compound | Ki [1] [nM] | Ki [2] [nM] | Ki [3] [nM]
1 | O=C(N[C@H]1CC[C@H](CCN2CCN(c3noc4cc(F)c(Cl)cc34)CC2)CC1)C1CC(Cl)C1 (stereo partly drawn) [Example 83, 3-Chloro-cyclobutanecarboxylic acid N-trans-(4-{2-[4-(5-chloro-6-fluoro-benzo[d]isoxazol-3-yl)-piperazin-1-yl]-ethyl}-cyclohexyl)-amide] | 8.55 | 5.85 | 11100
2 | CCC(=O)N[C@H]1CC[C@H](CCN2CCN(c3noc4cc(F)c(Cl)cc34)CC2)CC1 [Example 86, N-trans-(4-{2-[4-(5-Chloro-6-fluoro-benzo[d]isoxazol-3-yl)-piperazin-1-yl]-ethyl}-cyclohexyl)-propionamide] | 9.53 | 5.16 | 250
3 | CO[C@H]1CC[C@H](CC(=O)N[C@H]2CC[C@H](CCN3CCN(c4noc5cc(F)c(Cl)cc45)CC3)CC2)CC1 [Example 88, N-trans-(4-{2-[4-(5-Chloro-6-fluoro-benzo[d]isoxazol-3-yl)-piperazin-1-yl]-ethyl}-cyclohexyl)-2-trans-(4-methoxy-cyclohexyl)-acetamide] | 16.7 | 31.1 | 11200
4 | CS(=O)(=O)CC(=O)N[C@H]1CC[C@H](CCN2CCN(c3noc4cc(F)c(Cl)cc34)CC2)CC1 [Example 89, N-trans-(4-{2-[4-(5-Chloro-6-fluoro-benzo[d]isoxazol-3-yl)-piperazin-1-yl]-ethyl}-cyclohexyl)-2-methanesulfonyl-acetamide] | 2.89 | 5.72 | 11200
5 | CS(=O)(=O)CCC(=O)N[C@H]1CC[C@H](CCN2CCN(c3noc4cc(F)c(Cl)cc34)CC2)CC1 [Example 90, N-trans-(4-{2-[4-(5-Chloro-6-fluoro-benzo[d]isoxazol-3-yl)-piperazin-1-yl]-ethyl}-cyclohexyl)-3-methanesulfonyl-propionamide] | 7.64 | 14.3 | 1190
6 | COC(=O)N[C@H]1CC[C@H](CCN2CCN(c3noc4cc(F)c(Cl)cc34)CC2)CC1 [Example 91, N-trans-(4-{2-[4-(5-Chloro-6-fluoro-benzo[d]isoxazol-3-yl)-piperazin-1-yl]-ethyl}-cyclohexyl)-carbamic acid methyl ester] | 1.84 | 0.58 | 197
7 | COCCC(=O)N[C@H]1CC[C@H](CCN2CCN(c3noc4cc(Cl)c(Cl)cc34)CC2)CC1 [Example 94, N-trans-(4-{2-[4-(5,6-Dichloro-benzo[d]isoxazol-3-yl)-piperazin-1-yl]-ethyl}-cyclohexyl)-3-methoxy-propionamide] | 26.3 | 2.23 | 1970
8 | O=C(N[C@H]1CC[C@H](CCN2CCN(c3noc4cc(Cl)c(Cl)cc34)CC2)CC1)C1CCOCC1 [Example 95, Tetrahydro-pyran-4-carboxylic acid N-trans-(4-{2-[4-(5,6-dichloro-benzo[d]isoxazol-3-yl)-piperazin-1-yl]-ethyl}-cyclohexyl)-amide] | 49.9 | 117 | 7950
9 | CO[C@H]1CC[C@H](CC(=O)N[C@H]2CC[C@H](CCN3CCN(c4noc5cc(Cl)c(Cl)cc45)CC3)CC2)CC1 [Example 96, N-trans-(4-{2-[4-(5,6-Dichloro-benzo[d]isoxazol-3-yl)-piperazin-1-yl]-ethyl}-cyclohexyl)-2-trans-(4-methoxy-cyclohexyl)-acetamide] | 51.4 | 35.4 | 11600
10 | CO[C@H]1CC[C@H](CC(=O)N[C@H]2CC[C@H](CCN3CCN(c4noc5cc(C)ccc45)CC3)CC2)CC1 [Example 100, 2-trans-(4-Methoxy-cyclohexyl)-N-trans-(4-{2-[4-(6-methyl-benzo[d]isoxazol-3-yl)-piperazin-1-yl]-ethyl}-cyclohexyl)-acetamide] | 5.3 | 17.7 | 494
11 | Cc1ccc2c(N3CCN(CC[C@H]4CC[C@H](NC(=O)CC5OCCCO5)CC4)CC3)noc2c1 [Example 101, 2-[1,3]Dioxan-2-yl-N-trans-(4-{2-[4-(6-methyl-benzo[d]isoxazol-3-yl)-piperazin-1-yl]-ethyl}-cyclohexyl)-acetamide] | 5.15 | 8.33 | 384

Further compounds by falling Ki [1], results first:

Row | Ki [1] [nM] | Ki [2] [nM] | Ki [3] [nM] | Compound
12 | 30.7 | 9.45 | 11600 | O=C(CC1CCOCC1)N[C@H]1CC[C@H](CCN2CCN(c3noc4cc(Cl)c(Cl)cc34)CC2)CC1 [Example 97, N-trans-(4-{2-[4-(5,6-Dichloro-benzo[d]isoxazol-3-yl)-piperazin-1-yl]-ethyl}-cyclohexyl)-2-(tetrahydro-pyran-4-yl)-acetamide]
13 | 11.6 | 12.4 | 4070 | O=C(N[C@H]1CC[C@H](CCN2CCN(c3noc4cc(F)c(Cl)cc34)CC2)CC1)C1CCC1 [Example 92, Cyclobutanecarboxylic acid N-trans-(4-{2-[4-(5-chloro-6-fluoro-benzo[d]isoxazol-3-yl)-piperazin-1-yl]-ethyl}-cyclohexyl)-amide]
14 | 8.6 | 9.97 | 401 | O=C(CO)N[C@H]1CC[C@H](CCN2CCN(c3noc4cc(F)c(Cl)cc34)CC2)CC1 [Example 87, N-trans-(4-{2-[4-(5-Chloro-6-fluoro-benzo[d]isoxazol-3-yl)-piperazin-1-yl]-ethyl}-cyclohexyl)-2-hydroxy-acetamide]
15 | 7.47 | 8.2 | 368 | COc1ccc(C(=O)N[C@H]2CC[C@H](CCN3CCN(c4noc5cc(F)c(Cl)cc45)CC3)CC2)s1 [Example 85, 5-Methoxy-thiophene-2-carboxylic acid N-trans-(4-{2-[4-(5-chloro-6-fluoro-benzo[d]isoxazol-3-yl)-piperazin-1-yl]-ethyl}-cyclohexyl)-amide]
16 | 7.11 | 2.94 | 258 | O=C(N[C@H]1CC[C@H](CCN2CCN(c3noc4cc(F)c(Cl)cc34)CC2)CC1)c1ccc(Cl)s1 [Example 84, 5-Chloro-thiophene-2-carboxylic acid N-trans-(4-{2-[4-(5-chloro-6-fluoro-benzo[d]isoxazol-3-yl)-piperazin-1-yl]-ethyl}-cyclohexyl)-amide]
17 | 5.92 | 5.8 | 207 | CCC(=O)N[C@H]1CC[C@H](CCN2CCN(c3noc4cc(C)ccc34)CC2)CC1 [Example 99, N-trans-(4-{2-[4-(6-Methyl-benzo[d]isoxazol-3-yl)-piperazin-1-yl]-ethyl}-cyclohexyl)-propionamide]
18 | 5.21 | 7.42 | 222 | COCCC(=O)N[C@H]1CC[C@H](CCN2CCN(c3noc4cc(C)ccc34)CC2)CC1 [Example 98, 3-Methoxy-N-trans-(4-{2-[4-(6-methyl-benzo[d]isoxazol-3-yl)-piperazin-1-yl]-ethyl}-cyclohexyl)-propionamide]
19 | 2.99 | 1.37 | 11100 | Cc1cc(CC(=O)N[C@H]2CC[C@H](CCN3CCN(c4noc5cc(F)c(Cl)cc45)CC3)CC2)on1 [Example 82, N-trans-(4-{2-[4-(5-Chloro-6-fluoro-benzo[d]isoxazol-3-yl)-piperazin-1-yl]-ethyl}-cyclohexyl)-2-(3-methyl-isoxazol-5-yl)-acetamide]
